Results reported in patent US12180187B2, “1-phenyl-5-azinylpyrazolyl-3-oxyalkyl acids and their use for controlling unwanted plant growth” (BAYER AKTIENGESELLSCHAFT, priority 2019, dated 2024).

Experiments:
ALOMY = test: Pre-emergence action against ALOMY, 1280 g/ha; type: in vivo, Alopecurus myosuroides; details: visual scoring after about 3 weeks vs untreated controls, 100% = plants have died, 0% = like control plants
Method in brief: (§1)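 Pre-emergence pot test: seeds in sandy loam, soil-covered, sprayed on soil surface (WP/EC, 0.5% additive, 600 L/ha water); greenhouse ~3 wk; visual % effect vs untreated, 0–100%.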

VERPE [1] = test: Pre-emergence action against VERPE, 1280 g/ha; type: in vivo, Veronica persica; details: scored visually after about 3 weeks vs untreated controls (100% = plants have died); for pest or weed control at 1280 g/ha: Veronica persica, 504 h
Method in brief: as §1

ECHGC = test: Pre-emergence action at 320 g/ha against ECHGC; type: in vivo, Echinochloa crus-galli; details: visual scoring after about 3 weeks vs untreated controls
Method in brief: (§2)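 Visual scoring in percent against untreated controls, about 3 weeks after treatment, where 100% means dead plants and 0% means no difference. Compounds were applied as aqueous suspension or emulsion (WP or EC, plus 0.5% additive) onto soil covering freshly sown seeds, at 600 l/ha water.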

LOLRI = test: Pre-emergence action at 320 g/ha against LOLRI; type: in vivo, Lolium rigidum; details: visual scoring after about 3 weeks vs untreated controls; for pest or weed control at 320 g/ha: Lolium rigidum, 504 h
Method in brief: as §2

MATIN = test: Pre-emergence action at 320 g/ha against MATIN; type: in vivo, Tripleurospermum inodorum (Matricaria inodora); details: visual scoring after about 3 weeks vs untreated controls; for pest or weed control at 320 g/ha: Tripleurospermum inodorum, 504 h
Method in brief: as §2

STEME = test: Post-emergence action against STEME, 1.28 kg/ha; type: in vivo, Stellaria media; details: dosage 1280 g/ha, visual rating about 3 weeks after treatment vs untreated controls (100% = plants died)
Method in brief: (§3)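 Weeds grown in sandy loam in a greenhouse were sprayed at the one-leaf stage, 2–3 weeks after sowing, with WP or EC formulations in water containing 0.5% additive at 600 L/ha. About 3 weeks later, damage was scored visually versus untreated controls (0% = like control, 100% = dead).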

VERPE [2] = test: Post-emergence action against VERPE, 1.28 kg/ha; type: in vivo, Veronica persica; details: dosage 1280 g/ha, visual rating about 3 weeks after treatment vs untreated controls (100% = plants died)
Method in brief: as §3

DIGSA = test: Post-emergence action at 320 g/ha against DIGSA; type: in vivo, Digitaria sanguinalis; details: dosage 320 g/ha, visual rating about 3 weeks after treatment vs untreated controls (100% = plants died); for pest or weed control at 320 g/ha: Digitaria sanguinalis, 504 h
Method in brief: (§4)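 Activity is a visual rating against untreated controls, with 0% like control and 100% dead plants, made about 3 weeks after treatment. Plants grown in sandy loam in the greenhouse received a post-emergence spray at the one-leaf stage of 320 g/ha, formulated as WP or EC with 0.5% additive in 600 l/ha water.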

ECHCG = test: Post-emergence action at 320 g/ha against ECHCG; type: in vivo, Echinochloa crus-galli; details: dosage 320 g/ha, visual rating about 3 weeks after treatment vs untreated controls (100% = plants died)
Method in brief: as §4

POLCO = test: Post-emergence action at 320 g/ha against POLCO; type: in vivo, Fallopia convolvulus (Polygonum convolvulus); details: visual rating about 3 weeks after treatment vs untreated controls; for pest or weed control at 320 g/ha: Fallopia convolvulus, 504 h
Method in brief: as §4

AVEFA = test: Post-emergence action at 320 g/ha against AVEFA; type: in vivo; details: visual rating about 3 weeks after treatment vs untreated controls; for pest or weed control at 320 g/ha: Avena fatua, 504 h
Method in brief: as §4

KCHSC [3] = test: Pre-emergence action against KCHSC, 1280 g/ha; type: in vivo, Bassia scoparia; details: scored visually after about 3 weeks vs untreated controls (100% = plants have died)
Method in brief: as §1

KCHSC [4] = test: Post-emergence action against KCHSC, 1.28 kg/ha; type: in vivo, Bassia scoparia; details: dosage 1280 g/ha, visual rating about 3 weeks after treatment vs untreated controls (100% = plants died)
Method in brief: as §3

| SMILES | Pre-emergence action against ALOMY (ALOMY) | Pre-emergence action against VERPE (VERPE [1]) | Pre-emergence action against ECHGC in % (ECHGC) | Pre-emergence action against LOLRI in % (LOLRI) | Pre-emergence action against MATIN in % (MATIN) | Post-emergence action against STEME (STEME) | Post-emergence action against VERPE (VERPE [2]) | Post-emergence action at 320 g/ha against DIGSA in % (DIGSA) | Post-emergence action at 320 g/ha against ECHCG in % (ECHCG) | Post-emergence action against POLCO in % (POLCO) | Post-emergence action against AVEFA in % (AVEFA) | Pre-emergence action against KCHSC (KCHSC [3]) | Post-emergence action against KCHSC (KCHSC [4]) | pest or weed control at 1280 g/ha (VERPE [1]) | pest or weed control at 320 g/ha (LOLRI) | pest or weed control at 320 g/ha (MATIN) | pest or weed control at 320 g/ha (DIGSA) | pest or weed control at 320 g/ha (POLCO) | pest or weed control at 320 g/ha (AVEFA) | pest or weed control at 1280 g/ha (VERPE [2]; Veronica persica, 504 h) |
| --- | --- | --- | --- | --- | --- | --- | --- | --- | --- | --- | --- | --- | --- | --- | --- | --- | --- | --- | --- | --- |
| COC(=O)CNC(=O)COc1nn(-c2ccccc2F)c(-c2ccc(F)nc2)c1Br [Example X-002] | 100% | 100% | 100% | 100% | 100% | 90% | 90% | 100% | 100% | 90% | 100% |  |  |  |  |  |  |  |  |  |
| COC(=O)COc1nn(-c2ccccc2)c(-c2ccc(F)nc2)c1Br [VII-018] | 100% | 100% | 90% | 100% | 90% | 100% | 90% |  |  | 90% | 80% | 90% | 90% |  |  |  |  |  |  |  |
| COC(=O)COc1nn(-c2ccccc2F)c(-c2ccc(F)nc2)c1F [VII-040] | 100% | 100% | 90% | 100% | 100% | 100% | 100% |  | 80% | 90% | 90% |  | 90% |  |  |  |  |  |  |  |
| COC(=O)[C@@H](C)Oc1nn(-c2cc(F)ccc2F)c(-c2ccc(F)nc2)c1Br [VII-062] | 100% | 100% |  | 100% | 100% | 100% | 100% | 90% | 80% |  | 90% | 100% | 90% |  |  |  |  |  |  |  |
| COC(=O)C(C)Oc1nn(-c2ccccc2)c(-c2ccc(F)nc2)c1Br (stereo not shown) [VII-026] | 100% | 100% |  | 80% | 90% | 100% | 100% | 90% |  | 90% | 80% | 100% | 90% |  |  |  |  |  |  |  |
| COC(=O)[C@@H](C)Oc1nn(-c2ccccc2F)c(-c2cncnc2)c1Br [VI-011, Methyl (2R)-2-{[4-bromo-1-(2-fluorophenyl)-5-(pyrimidin-5-yl)-1H-pyrazol-3-yl]oxy}propanoate] | 90% |  | 80% |  |  | 100% |  |  |  |  |  | 100% | 90% | 100% | 100% | 90% | 90% | 80% | 90% |  |
| CCOC(=O)COc1nn(-c2ccccc2F)c(-c2cncc(F)c2)c1Br [VII-015] | 90% | 100% | 90% | 90% | 100% | 100% | 100% | 100% | 90% | 100% | 90% |  |  |  |  |  |  |  |  |  |
| COC(=O)[C@@H](C)Oc1nn(-c2ccccc2)c(-c2cccnc2)c1Br [VII-008] | 100% | 100% | 80% | 100% | 100% | 100% | 100% | 80% | 90% |  | 90% | 90% | 90% |  |  |  |  |  |  |  |
| C=CCNC(=O)COc1nn(-c2ccccc2F)c(-c2ccc(F)nc2)c1Br [Example X-001, N-Allyl-2-{[4-bromo-1-(2-fluorophenyl)-5-(6-fluoropyridin-3-yl)-1H-pyrazol-3-yl]oxy}acetamide] | 90% |  | 100% |  |  |  |  |  | 80% |  |  |  |  | 100% | 100% | 90% | 80% | 80% | 90% | 100% |
| COC(=O)[C@@H](C)Oc1nn(-c2cc(F)ccc2F)c(-c2cncc(F)c2)c1Br [VII-132] | 100% | 100% | 90% | 100% | 90% |  | 90% | 90% | 80% |  | 80% | 100% | 100% |  |  |  |  |  |  |  |
| CCOC(=O)COc1nn(-c2ccccc2F)c(-c2ccc(F)nc2)c1C(F)(F)F [VII-010] | 100% | 100% | 100% | 100% | 100% | 100% | 90% | 90% | 90% | 80% | 100% |  |  |  |  |  |  |  |  |  |
| COC(=O)COc1nn(-c2ccccc2F)c(-c2ccc(F)nc2)c1C(F)(F)F [VII-031] | 100% | 100% | 90% | 100% | 100% | 100% | 100% | 100% | 90% | 90% | 90% |  |  |  |  |  |  |  |  |  |
| CS(=O)(=O)NC(=O)COc1nn(-c2ccccc2F)c(-c2ccc(F)nc2)c1Br [Example X-004] | 90% | 90% | 90% | 100% | 90% | 100% | 100% | 90% | 90% | 80% | 90% |  |  |  |  |  |  |  |  |  |
| COC(=O)CCOC(=O)COc1nn(-c2ccccc2F)c(-c2ccc(F)nc2)c1Br [VII-111] | 100% | 100% | 100% | 100% | 90% | 100% | 90% | 90% | 90% | 90% | 90% |  |  |  |  |  |  |  |  |  |
